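Exposure lasted 48 hours, with cells grown in 96-well plates and compounds tested at five concentrations. TGI: total growth inhibition.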 Where a SMILES comes first, the peptide text is derived from it. [ ]: non-standard residue; d: D form. β3hI = CC[CH](C)[CH](N)CC(=O)O
Tests used:
Test in all cases: NCI anticancer screen, dose series, 48 h
[1] = system: 786-0 renal
[2] = system: A498 renal
[3] = system: ACHN renal
[4] = system: BT-549 breast
[5] = system: CAKI-1 renal
[6] = system: COLO 205 colon
[7] = system: DU-145 prostate
[8] = system: EKVX NSCLC
[9] = system: HCC-2998 colon
[10] = system: HCT-116 colon
[11] = system: HCT-15 colon
[12] = system: HL-60(TB) leukemia
[13] = system: HOP-62 NSCLC
[14] = system: HOP-92 NSCLC
[15] = system: HS 578T breast
[16] = system: HT29 colon
[17] = system: IGROV1 ovarian
[18] = system: K-562 leukemia
[19] = system: KM12 colon
[20] = system: LOX IMVI melanoma
[21] = system: MALME-3M melanoma
[22] = system: MCF7 breast
[23] = system: MDA-MB-231 breast
[24] = system: MDA-MB-435
[25] = system: MDA-N
[26] = system: MOLT-4 leukemia
[27] = system: NCI-H226 lung
[28] = system: NCI-H23 lung
[29] = system: NCI-H460 lung
[30] = system: NCI-H522 lung
[31] = system: NCI/ADR-RES ovarian
[32] = system: OVCAR-3 ovarian
[33] = system: OVCAR-4 ovarian
[34] = system: OVCAR-5 ovarian
[35] = system: OVCAR-8 ovarian
[36] = system: PC-3 prostate
[37] = system: RPMI-8226 leukemia
[38] = system: RXF 393 renal
[39] = system: SF-295 CNS
[40] = system: SK-MEL-2 melanoma
[41] = system: SK-MEL-28 melanoma
[42] = system: SK-MEL-5 melanoma
[43] = system: SK-OV-3 ovarian
[44] = system: SN12C renal
[45] = system: SNB-75 CNS
[46] = system: SW-620 colon
[47] = system: T-47D breast
[48] = system: TK-10 renal
[49] = system: U251 CNS
[50] = system: UACC-257 melanoma
[51] = system: UACC-62 melanoma
[52] = system: M19-MEL melanoma
[53] = system: A549 NSCLC
[54] = system: CCRF-CEM leukemia
[55] = system: M14 melanoma
[56] = system: SF-268 CNS
[57] = system: SF-539 CNS
[58] = system: SNB-19 CNS
[59] = system: SR leukemia
[60] = system: UO-31 renal

Structure (SMILES): CC(=O)N[C@H]1CCCC[C@@H]1OC(C)=O
- TGI [1]: > 100 µM
- TGI [2]: > 100 µM
- TGI [3]: > 100 µM
- TGI [4]: > 100 µM
- TGI [5]: > 100 µM
- TGI [6]: > 100 µM
- TGI [7]: > 100 µM
- TGI [8]: > 100 µM
- TGI [9]: > 100 µM
- TGI [10]: > 100 µM
- TGI [11]: > 100 µM
- TGI [12]: > 100 µM
- TGI [13]: > 100 µM
- TGI [14]: > 100 µM
- TGI [15]: > 100 µM
- TGI [16]: > 100 µM
- TGI [17]: > 100 µM
- TGI [18]: > 100 µM
- TGI [19]: > 100 µM
- TGI [20]: > 100 µM
- TGI [21]: > 100 µM
- TGI [22]: > 100 µM
- TGI [23]: > 100 µM
- TGI [24]: > 100 µM
- TGI [25]: > 100 µM
- TGI [26]: > 100 µM
- TGI [27]: > 100 µM
- TGI [28]: > 100 µM
- TGI [29]: > 100 µM
- TGI [30]: > 100 µM
- TGI [31]: > 100 µM
- TGI [32]: > 100 µM
- TGI [33]: > 100 µM
- TGI [34]: > 100 µM
- TGI [35]: > 100 µM
- TGI [36]: > 100 µM
- TGI [37]: > 100 µM
- TGI [38]: > 100 µM
- TGI [39]: > 100 µM
- TGI [40]: > 100 µM
- TGI [41]: > 100 µM
- TGI [42]: > 100 µM
- TGI [43]: > 100 µM
- TGI [44]: > 100 µM
- TGI [45]: > 100 µM
- TGI [46]: > 100 µM
- TGI [47]: > 100 µM
- TGI [48]: > 100 µM
- TGI [49]: > 100 µM
- TGI [50]: > 100 µM
- TGI [51]: > 100 µM

Structure (SMILES): COc1ccc(C(c2ccccc2)C(C)C(=O)c2c(C)cc(C)cc2C)cc1 (stereo not given)
- TGI [16]: > 100 µM
- TGI [18]: > 100 µM
- TGI [52]: > 100 µM
- TGI [21]: > 100 µM
- TGI [30]: > 100 µM
- TGI [37]: > 100 µM

Structure (SMILES): CCC(C)C(CC(=O)N1CCCC1C(=O)NC(C(=O)NC(C(=O)NCC(=O)NC(CC(N)=O)C(=O)NC(C(=O)NC(C(=O)NC(CCCCN)C(N)=O)C(C)CC)C(C)CC)C(C)C)C(C)CC)NC(=O)C(N)C(C)CC (stereo not drawn) (H-I[β3hI]PIVGNIIK-NH2; configuration not given here)
- TGI [1]: > 50 µM
- TGI [2]: > 50 µM
- TGI [53]: > 50 µM
- TGI [3]: > 50 µM
- TGI [4]: > 50 µM
- TGI [5]: > 50 µM
- TGI [54]: > 50 µM
- TGI [6]: > 50 µM
- TGI [7]: > 50 µM
- TGI [8]: > 50 µM
- TGI [10]: > 50 µM
- TGI [11]: > 50 µM
- TGI [12]: > 50 µM
- TGI [13]: > 50 µM
- TGI [14]: > 50 µM
- TGI [15]: > 50 µM
- TGI [16]: > 50 µM
- TGI [17]: > 50 µM
- TGI [19]: > 50 µM
- TGI [20]: > 50 µM
- TGI [55]: > 50 µM
- TGI [21]: > 50 µM
- TGI [22]: > 50 µM
- TGI [23]: > 50 µM
- TGI [24]: > 50 µM
- TGI [25]: > 50 µM
- TGI [26]: > 50 µM
- TGI [27]: > 50 µM
- TGI [28]: > 50 µM
- TGI [30]: > 50 µM
- TGI [31]: > 50 µM
- TGI [32]: > 50 µM
- TGI [33]: > 50 µM
- TGI [34]: > 50 µM
- TGI [35]: > 50 µM
- TGI [36]: > 50 µM
- TGI [37]: > 50 µM
- TGI [56]: > 50 µM
- TGI [39]: > 50 µM
- TGI [57]: > 50 µM
- TGI [40]: > 50 µM
- TGI [41]: > 50 µM
- TGI [42]: > 50 µM
- TGI [43]: > 50 µM
- TGI [44]: > 50 µM
- TGI [58]: > 50 µM
- TGI [59]: > 50 µM
- TGI [46]: > 50 µM
- TGI [47]: > 50 µM
- TGI [48]: > 50 µM
- TGI [49]: > 50 µM
- TGI [50]: > 50 µM
- TGI [51]: > 50 µM
- TGI [60]: > 50 µM

Structure (SMILES): S=C(S)N1CCN(c2ccc(Cl)c(Cl)c2)CC1
- TGI [1]: > 100 µM
- TGI [2]: 44.2 µM
- TGI [53]: > 100 µM
- TGI [3]: > 100 µM
- TGI [4]: > 100 µM
- TGI [5]: 59.8 µM
- TGI [54]: > 100 µM
- TGI [6]: 33.6 µM
- TGI [7]: 57 µM
- TGI [8]: > 100 µM
- TGI [9]: 36.6 µM
- TGI [10]: 29.5 µM
- TGI [11]: > 100 µM
- TGI [12]: 44.3 µM
- TGI [13]: > 100 µM
- TGI [14]: 75.3 µM
- TGI [15]: 97.2 µM
- TGI [16]: 49.3 µM
- TGI [17]: 84.6 µM
- TGI [18]: 55.8 µM
- TGI [19]: 34.5 µM
- TGI [20]: 31.6 µM
- TGI [55]: 40.7 µM
- TGI [21]: 44.2 µM
- TGI [22]: 70.9 µM
- TGI [23]: 40.7 µM
- TGI [24]: 37.4 µM
- TGI [25]: 35 µM
- TGI [30]: 50.1 µM
- TGI [31]: > 100 µM
- TGI [32]: 50 µM
- TGI [34]: > 100 µM
- TGI [35]: > 100 µM
- TGI [36]: 46.9 µM
- TGI [37]: 45.8 µM
- TGI [38]: > 100 µM
- TGI [56]: > 100 µM
- TGI [39]: > 100 µM
- TGI [57]: 59.4 µM
- TGI [40]: 34.6 µM
- TGI [41]: 62.7 µM
- TGI [42]: 30.5 µM
- TGI [44]: > 100 µM
- TGI [58]: > 100 µM
- TGI [45]: > 100 µM
- TGI [46]: 52.9 µM
- TGI [47]: 42.6 µM
- TGI [48]: > 100 µM
- TGI [49]: 90.7 µM

— PubChem BioAssay (NCI)
